Our source for the CC50, inhibition and EC50 values is patent publication US5905068A, “Retroviral protease inhibiting compounds” (Abbott Laboratories, priority 1996, dated 1999).

A short description of data set [1]: Cytotoxicity in uninfected MT4 cells (MTT). The note with it: human, 5 days, n=four duplicate determinations, read-out: CTC50 (50% cytotoxicity concentration). Format: cell-based. How it is done: The anti-HIV activity of the compound of the invention was determined in MF4 cells according to the following procedure: MT4 cells were infected with cell-free supernatant of HIVIIIB (previously frozen with known 50% tissue culture infectious dose (TCID50) at 0.003 multiplicity of infection (MOI)) for one hour. After one hour infection, cells were washed twice to remove residual viruses, resuspended in culture media and seeded into 96-well tissue culture plates at 1×10^4 cells per well with various half-log dilutions of compounds. Uninfected cells were included a toxicity and cell controls. […] All assay plates were incubated in a 37° C. incubator for 5 days. […] SDS (20%) with 0.02N HCl in water was added at 50 μL per well to lyse cells. Plates were incubated overnight for complete cell lysis and then read on a microtiter plate reader at 570/650 nm wavelengths to determine cell optical density (O.D.). Raw data was analysed for percent inhibition by the following formula: [formula]
The 50% cytotoxicity concentration (CTC50) was calculated using uninfected MT4 cells

A further data set addresses HIV-1 protease (Human immunodeficiency virus type 1 group M subtype B, UniProt P04585). The experiment in a line: Fluorogenic Assay for Screening Inhibitors of HIV Protease. The note with it: pH 4.5.
The subject of the next data set is HIVIIIB. The experiment in a line: Antiviral Activity: anti-HIV activity in MT4 cells infected with HIVIIIB (MTT). Particulars: Human immunodeficiency virus 1, 120 h, MOI 0.003, 5 days, n=four duplicate determinations. Format: cell-based. How it is done:
The anti-HIV activity of the compound of the invention was determined in MF4 cells according to the following procedure: MT4 cells were infected with cell-free supernatant of HIVIIIB (previously frozen with known 50% tissue culture infectious dose (TCID50) at 0.003 multiplicity of infection (MOI)) for one hour. After one hour infection, cells were washed twice to remove residual viruses, resuspended in culture media and seeded into 96-well tissue culture plates at 1×10^4 cells per well with various half-log dilutions of compounds. Uninfected cells were included a toxicity and cell controls. RPMI 1640 media (GIBCO) with 10% fetal bovine serum was used as culture media. Various concentrations (50%, 25% and 12.5%) of human serum (SIGMA) were added to culture media resulting in final concentrations of 60%, 35% and 22.5% total serum. All assay plates were incubated in a 37° C. incubator for 5 days. The compound 3-[4,5-dimethylthiozol-2-yl]-2,5-diphenyltetrazolium bromide (MTT, SIGMA, 5 mg .mL stock in PBS) was then added to all wells at 25 μL per well and incubated for 4 hours. SDS (20%) with 0.02N HCl in water was added at 50 μL per well to lyse cells. Plates were incubated overnight for complete cell lysis and then read on a microtiter plate reader at 570/650 nm wavelengths to determine cell optical density (O.D.). Raw data was analysed for percent inhibition by the following formula: [formula]
The 50% effective concentration (EC50) was calculated by the median effect equation (Chou, 1975, Proc. Int. Cong. Pharmacol. 6th p. 619) to determine the efficacy of compound. The 50% cytotoxicity concentration (CTC50) was calculated using uninfected MT4 cells
Under these conditions, the data of Table 2 was obtained (n=four duplicate determinations).

Procedure for HIV-1 protease: The inhibitory potency of the compounds of the invention were determined by the following method: The compound of the invention was dissolved in DMSO and a small aliquot further diluted with DMSO to 100 times the final concentration desired for testing. The reaction was carried out in a 6×50 mm tube in a total volume of 300 microliters. […] After addition of inhibitor, the reaction mixture was placed in the fluorometer cell holder and incubated at 30° C. for several minutes. The reaction was initiated by the addition of a small aliquot of cold HIV protease. The fluorescence intensity (excitation 340 nm, emission 490 nm) was recorded as a function of time. The reaction rate was determined for the first six to eight minutes. The observed rate was directly proportional to the moles of substrate cleaved per unit time. The percent inhibition was calculated according to the equation: 100×(1-(rate of inhibitor)/(rate in absence of inhibitor)). As a control, duplicate reactions were performed identically as above but without the addition of an inhibitor compound.

As for `Cc1cc(F)cc(C)c1OCC(=O)N[C@@H](Cc1ccccc1)C[C@H](O)[C@H](Cc1ccccc1)NC(=O)O[C@H]1CO[C@H]2OCC[C@H]21` [Example 14, (2S,3S,5S)-5-(2,6-Dimethyl-4-fluoro-phenoxyacetyl)amino-2-((3R,3aS,6aR)-bis-tetrahydrofuran-3-yl-oxycarbonyl)amino-1,6-diphenyl-3-hydroxyhexane], the CC50 at 120 h in data set [1] is 64 µM. Further, at HIV-1 protease, the inhibition at 0.0005 µM was 69%. In the data set with HIVIIIB, the EC50 came out at 268 nM.

For the compound `Cc1cc(N(C)C)cc(C)c1OCC(=O)N[C@@H](Cc1ccccc1)C[C@H](O)[C@H](Cc1ccccc1)NC(=O)O[C@H]1CO[C@H]2OCC[C@H]21` [Example 15, 5-(2,6-Dimethyl-4-N, N-dimethylamino-phenoxyacetyl)amino-2-((3R,3aS,6aR)-bis-tetrahydrofuran-3-yl-oxycarbonyl)amino-1,6-diphenyl-3-hydroxyhexane], the CC50 at 120 h in data set [1] came to 46 µM. Further, at 0.0005 µM the inhibition at HIV-1 protease was 43%. Further, a half-maximal response in the data set on HIVIIIB (EC50) required 160 nM.

Turning to `Cc1ccc(N)c(C)c1OCC(=O)N[C@@H](Cc1ccccc1)C[C@H](O)[C@H](Cc1ccccc1)NC(=O)O[C@H]1CO[C@H]2OCC[C@H]21` [Example 16, (2S,3S,5S)-5-(2,6-Dimethyl-3-amino-phenoxyacetyl)amino-2-((3R,3aS,6aR)-bis-tetrahydrofuran-3-yl-oxycarbonyl)amino-1,6-diphenyl-3-hydroxyhexane], the CC50 at 120 h in data set [1] is > 100 µM. This compound also came in with an inhibition at 0.0005 µM against HIV-1 protease of 87%. The concentration for a half-maximal effect (EC50) in the data set with HIVIIIB was < 32 nM.

Regarding `Cc1cc(N)cc(C)c1SCC(=O)N[C@@H](Cc1ccccc1)C[C@H](O)[C@H](Cc1ccccc1)NC(=O)O[C@H]1CO[C@H]2OCC[C@H]21` [Example 17, 5-(2,6-Dimethyl-4-amino-phenylthioacetyl)amino-2-((3R,3aS,6aR)-bis-tetrahydrofuran-3-yl-oxycarbonyl)amino-1,6-diphenyl-3-hydroxybexane], in data set [1], the CC50 at 120 h is 56 µM. The same compound had an inhibition at 0.001 µM against HIV-1 protease of 50%. Moreover, a half-maximal response in the data set on HIVIIIB (EC50) required 5790 nM.

Regarding `O=C(N[C@@H](Cc1ccccc1)C[C@H](O)[C@H](Cc1ccccc1)NC(=O)O[C@H]1CO[C@H]2OCC[C@H]21)O[C@H]1CO[C@H]2OCC[C@H]21` [Example 20, (2S,3S,5S)-2,5-Di-((3R,3aS,6aR)-bis-Tetrahydrofuran-3-yl-oxycarbonyl)amino-1,6-diphenyl-3-hydroxyhexane], the CC50 at 120 h in data set [1] is > 100 µM. At HIV-1 protease, the inhibition at 0.0005 µM worked out at 64%. Moreover, the midpoint of the response in the data set on HIVIIIB, the EC50, lay at 34 nM.

With `O=C(N[C@@H](Cc1ccccc1)[C@@H](O)C[C@H](Cc1ccccc1)NC(=O)O[C@@H]1CO[C@@H]2OCC[C@@H]21)O[C@H]1CO[C@H]2OCC[C@H]21` [Example 22, (2S,3S,5S)-2-((3R,3aS,6aR)-bis-Tetrahydrofuran-3-yl-oxycarbonyl)amino-5-((3S,3aR,6aS)-bis-Tetrahydrofuran-3-yl-oxycarbonyl)amino-1,6-diphenyl-3-hydroxyhexane], the CC50 at 120 h in data set [1] is > 100 µM. At 0.0005 µM the inhibition against HIV-1 protease was 73%. In addition, in the data set with HIVIIIB, a half-maximal effect (EC50) was put at 107 nM.

Turning to `O=C(N[C@@H](Cc1ccccc1)C[C@H](O)[C@H](Cc1ccccc1)NC(=O)O[C@@H]1CO[C@@H]2OCC[C@@H]21)O[C@H]1CO[C@H]2OCC[C@H]21` [Example 23, (2S,3S,5S)-2-((3S,3aR,6aS)-bis-tetrahydrofuran-3-yl-oxycarbonyl)amino-5-((3R,3aS,6aR)-bis-tetrahydrofuran-3-yl-oxycarbonyl)amino-1,6-diphenyl-3-hydroxyhexane], in data set [1], the CC50 at 120 h was > 100 µM. At HIV-1 protease, the inhibition at 0.0005 µM stood at 39%. Also, in the data set on HIVIIIB, the EC50 turned out to be 891 nM.

With `Cc1cc2[nH]cnc2c(C)c1OCC(=O)N[C@@H](Cc1ccccc1)C[C@H](O)[C@H](Cc1ccccc1)NC(=O)O[C@H]1CO[C@H]2OCC[C@H]21` [Example 24, (2S,3S,5S)-5-(4,6-Dimethyl-benzimidazol-5-yloxy-acetyl)amino-2-((3R,3aS,6aR)-bis-tetrahydrofuran-3-yl-oxycarbonyl)amino-1,6-diphenyl-3-hydroxyhexane], the CC50 at 120 h in data set [1] was > 100 µM. 0.0005 µM produced 80% inhibition on HIV-1 protease. Also, it took 114 nM to reach a half-maximal effect in the data set with HIVIIIB (EC50).

Regarding `Cc1cc2[nH]c(=O)[nH]c2c(C)c1OCC(=O)N[C@@H](Cc1ccccc1)C[C@H](O)[C@H](Cc1ccccc1)NC(=O)O[C@H]1CO[C@H]2OCC[C@H]21` [Example 25, (2S,3S,5S)-5-(4,6-Dimethyl-benzimidazolinon-5-yloxy-acetyl)amino-2-((3R,3aS,6aR)-bis-tetrahydrofuran-3-yl-oxycarbonyl)amino-1,6-diphenyl-3-hydroxyhexane], the CC50 at 120 h in data set [1] is > 100 µM. The same compound returned an inhibition at 0.0005 µM at HIV-1 protease of 85%. In addition, in the data set on HIVIIIB, it took 972 nM to reach a half-maximal effect (EC50).

`Cc1cc2ncoc2c(C)c1OCC(=O)N[C@@H](Cc1ccccc1)C[C@H](O)[C@H](Cc1ccccc1)NC(=O)O[C@H]1CO[C@H]2OCC[C@H]21` [Example 26, (2S,3S,5S)-5-(4,6-Dimethyl-benzoxazol-5-yloxy-acetyl)amino-2-((3R,3aS,6aR)-bis-tetrahydrofuran-3-yl-oxycarbonyl)amino-1,6-diphenyl-3-hydroxyhexane]: in data set [1], the CC50 at 120 h stood at 29.8 µM. At HIV-1 protease, this compound had an inhibition at 0.0005 µM of 80%. This compound returned an EC50 in the data set on HIVIIIB of 157 nM.

Take `Cc1cccc(C)c1OCC(=O)N[C@@H](Cc1ccccc1)[C@@H](O)C[C@H](Cc1ccccc1)NC(=O)O[C@@H]1CCSC1(C)C` [Example 32, (2S,3S,5S)-2-(2,6-Dimethylphenoxyacetyl)amino-5-(3R-2,2-dimethyl-tetrahydrothienyloxycarbonyl)amino-1,6-diphenyl-3-hydroxyhexane]: in data set [1], the CC50 at 120 h is > 100 µM. The same compound displayed an inhibition at 0.0005 µM against HIV-1 protease of 50%. Moreover, the EC50 with HIVIIIB amounted to 1180 nM.

Turning to `Cc1cccc(C)c1OCC(=O)N[C@@H](Cc1ccccc1)[C@@H](O)C[C@H](Cc1ccccc1)NC(=O)O[C@@H]1CCS(=O)(=O)C1(C)C` [Example 33, (2S,3S,5S)-2-(2,6-Dimethylphenoxyacetyl)amino-5-(3R-2,2-dimethyl-1,1-dioxy-tetrahydrothienyloxycarbonyl)amino-1,6-diphenyl-3-hydroxyhexane], in data set [1], the CC50 at 120 h is 18.3 µM. At HIV-1 protease, this compound showed an inhibition at 0.0005 µM of 84%. For the same compound, the response with HIVIIIB was half-maximal at 442 nM (EC50).

For `CC(C)c1nc(CN(C)C(=O)N[C@H](C(=O)N[C@@H](Cc2ccccc2)C[C@H](O)[C@H](Cc2ccccc2)NC(=O)OC2COC3OCCC23)C(C)C)cs1` (stereo partly drawn) [Example 34, (2S,3S,5S)-5-(N-(N-((N-Methyl-N-((2-isopropyl-4-thiazolyl)methyl)amino)carbonyl)-L-valinyl)amino)-2-((3R,3aS,6aR), (3S,3aR,6aS)-bis-tetrahydrofuran-3-yl-oxycarbonyl)amino-1,6-diphenyl-3-hydroxyhexane], in data set [1], the CC50 at 120 h is 56.3 µM. Besides, at HIV-1 protease, 0.0005 µM produced 52% inhibition. This compound also gave a concentration for a half-maximal effect (EC50) in the data set with HIVIIIB of 9 nM.

Consider `O=C(N[C@@H](Cc1ccccc1)[C@@H](O)C[C@H](Cc1ccccc1)NC(=O)OC1COC2OCCC12)OCc1cncs1` (stereo partly drawn) [Example 35, (2S,3S,5S)-2-((5-Thiazolyl)methoxycarbonyl)amino-5-((3R,3aS,6aR), (3S,3aR,6aS)-bis-tetrahydrofuran-3-yl-oxycarbonyl)amino-1,6-diphenyl-3-hydroxyhexane], for which the CC50 at 120 h in data set [1] is > 100 µM. The compound further came in with an inhibition at 0.0005 µM against HIV-1 protease of 52%. Also, the EC50 in the data set with HIVIIIB is 428 nM.

`CC(C)c1nc(COC(=O)N[C@@H](C(=O)N[C@@H](Cc2ccccc2)C[C@H](O)[C@H](Cc2ccccc2)NC(=O)OC2COC3OCCC23)C(C)C)cs1` (stereo partly drawn) [Example 36]: the CC50 at 120 h in data set [1] was 27.8 µM. Moreover, the inhibition at 0.0005 µM against HIV-1 protease stood at 66%. Moreover, the EC50 in the data set with HIVIIIB amounted to 30 nM.

For `CC(C)c1nc(COC(=O)N[C@H](C(=O)N[C@@H](Cc2ccccc2)C[C@H](O)[C@H](Cc2ccccc2)NC(=O)OC2COC3OCCC23)C(C)C)cs1` (stereo partly drawn) [Example 37], the CC50 at 120 h in data set [1] was > 100 µM. In addition, 0.0005 µM produced 83% inhibition on HIV-1 protease. The same compound had an EC50 in the data set on HIVIIIB of 14 nM.
